Measurements: patent US10167272B2, “Muscarinic agonists” (Heptares Therapeutics Limited, priority 2015, dated 2019)
Where two headings read alike, the source gives them in different places.

Assays:
Format in all cases: cell-based
[1] = target: T1, human muscarinic M4 receptor (Homo sapiens, UniProt P08173); assay: Alphascreen Surefire phospho-ERK1/2 functional assay, M4; details: for Emax: CHO
T1 construct: expressed in transfected cells
T1 sequence (P08173 1-479): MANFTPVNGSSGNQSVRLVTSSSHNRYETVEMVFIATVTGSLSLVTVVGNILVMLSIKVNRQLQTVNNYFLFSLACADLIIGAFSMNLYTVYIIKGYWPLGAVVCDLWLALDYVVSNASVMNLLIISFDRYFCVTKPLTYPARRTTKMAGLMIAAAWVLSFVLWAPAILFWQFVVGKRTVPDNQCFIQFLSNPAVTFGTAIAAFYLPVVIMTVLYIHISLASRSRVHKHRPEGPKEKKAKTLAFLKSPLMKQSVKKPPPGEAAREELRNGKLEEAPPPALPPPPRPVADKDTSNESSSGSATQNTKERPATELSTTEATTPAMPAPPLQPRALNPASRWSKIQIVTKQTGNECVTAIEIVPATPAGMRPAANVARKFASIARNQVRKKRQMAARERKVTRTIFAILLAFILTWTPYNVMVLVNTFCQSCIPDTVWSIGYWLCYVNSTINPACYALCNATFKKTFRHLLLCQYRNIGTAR

[2] = target: T2, human muscarinic M3 receptor (Homo sapiens, UniProt P20309); assay: Alphascreen Surefire phospho-ERK1/2 functional assay, M3; details: for EC50: CHO cells stably expressing human M3, read-out: pEC50 M3 (converted); for Emax: CHO
T2 construct: expressed in transfected cells
Description: (§1) ERK1/2 phosphorylation is a downstream consequence of both Gq/11 and Gi/o protein coupled receptor activation, making it highly suitable for the assessment of M1, M3 (Gq/11 coupled) and M2, M4 receptors (Gi/o coupled), rather than using different assay formats for different receptor subtypes. CHO cells stably expressing the human muscarinic M1, M2, M3 or M4 receptor were plated (25K/well) onto 96-well tissue culture plates in MEM-alpha+10% dialysed FBS. Once adhered, cells were serum-starved overnight. Agonist stimulation was performed by the addition of 5 μL agonist to the cells for 5 min (37° C.). Media was removed and 50 μL of lysis buffer added. After 15 min, a 4 μL sample was transferred to 384-well plate and 7 μL of detection mixture added.

[3] = target: T3, human muscarinic M1 receptor (Homo sapiens, UniProt P11229); assay: Alphascreen Surefire phospho-ERK1/2 functional assay, M1; details: phospho-ERK1/2; for EC50: read-out: pEC50 M1 (converted); for Emax: CHO, read-out: % Emax cf. ACh (M1), CHO cells stably expressing human M1
T3 sequence (P11229 1-460): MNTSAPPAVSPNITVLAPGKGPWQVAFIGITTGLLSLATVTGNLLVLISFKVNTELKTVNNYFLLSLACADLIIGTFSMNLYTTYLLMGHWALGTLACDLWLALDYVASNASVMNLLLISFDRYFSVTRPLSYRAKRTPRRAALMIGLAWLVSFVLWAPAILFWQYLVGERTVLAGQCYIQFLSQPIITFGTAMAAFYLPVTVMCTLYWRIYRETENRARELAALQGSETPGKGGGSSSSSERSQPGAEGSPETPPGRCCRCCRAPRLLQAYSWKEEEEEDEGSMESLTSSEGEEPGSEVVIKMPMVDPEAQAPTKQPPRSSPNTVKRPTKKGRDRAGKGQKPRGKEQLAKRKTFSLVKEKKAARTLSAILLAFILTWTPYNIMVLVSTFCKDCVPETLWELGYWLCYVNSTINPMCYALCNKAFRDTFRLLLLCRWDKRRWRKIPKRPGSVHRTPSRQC
Description: as §1

[4] = target: T4, human muscarinic M2 receptor (Homo sapiens, UniProt P08172); assay: Alphascreen Surefire phospho-ERK1/2 functional assay, M2; details: for EC50: CHO cells stably expressing human M2, read-out: pEC50 M2 (converted); for Emax: CHO, read-out: % Emax cf. ACh (M2), CHO cells stably expressing human M2, relative to ACh
T4 sequence (P08172 1-466): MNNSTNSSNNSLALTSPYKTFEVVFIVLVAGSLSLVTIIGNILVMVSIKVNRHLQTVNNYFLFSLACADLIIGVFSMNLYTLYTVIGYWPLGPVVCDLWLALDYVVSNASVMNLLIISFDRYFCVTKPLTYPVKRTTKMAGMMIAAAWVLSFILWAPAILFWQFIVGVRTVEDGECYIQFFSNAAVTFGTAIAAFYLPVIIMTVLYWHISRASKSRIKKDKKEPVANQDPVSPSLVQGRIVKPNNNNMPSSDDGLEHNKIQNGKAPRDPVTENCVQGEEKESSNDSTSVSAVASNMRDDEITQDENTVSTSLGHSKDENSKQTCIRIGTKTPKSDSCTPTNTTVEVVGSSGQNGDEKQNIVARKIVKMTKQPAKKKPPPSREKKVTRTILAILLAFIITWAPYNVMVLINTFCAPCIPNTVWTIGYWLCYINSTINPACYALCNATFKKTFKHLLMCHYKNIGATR
Description: as §1

[5] = CHO cells stably expressing human M4, phospho-ERK1/2, read-out: pEC50 M4 (converted)
[6] = read-out: % Emax cf. ACh (M4), CHO cells stably expressing human M4, phospho-ERK1/2, relative to ACh
[7] = read-out: % Emax cf. ACh (M3), CHO cells stably expressing human M3, phospho-ERK1/2, relative to ACh
[8] = CHO cells stably expressing human M1

T2 sequence (P20309 whole entry): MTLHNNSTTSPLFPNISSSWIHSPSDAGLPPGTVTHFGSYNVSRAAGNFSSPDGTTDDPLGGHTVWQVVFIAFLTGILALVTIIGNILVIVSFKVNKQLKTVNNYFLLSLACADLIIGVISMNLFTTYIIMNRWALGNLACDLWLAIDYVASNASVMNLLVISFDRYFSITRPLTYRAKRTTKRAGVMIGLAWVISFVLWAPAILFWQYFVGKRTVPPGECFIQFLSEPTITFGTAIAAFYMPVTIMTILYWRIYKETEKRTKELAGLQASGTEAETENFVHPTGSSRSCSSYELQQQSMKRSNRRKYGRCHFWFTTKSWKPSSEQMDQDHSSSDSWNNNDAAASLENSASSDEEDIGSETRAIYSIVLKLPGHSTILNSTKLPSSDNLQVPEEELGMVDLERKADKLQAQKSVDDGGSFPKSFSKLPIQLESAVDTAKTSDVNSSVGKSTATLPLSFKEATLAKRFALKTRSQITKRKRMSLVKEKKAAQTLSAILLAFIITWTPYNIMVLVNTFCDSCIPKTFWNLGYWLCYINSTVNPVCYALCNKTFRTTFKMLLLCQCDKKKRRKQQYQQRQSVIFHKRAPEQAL

## CCOC(=O)N1CCC2(CC(N3CCC(N(CC(F)(F)F)C4COC4)CC3)C2)C1 (single isomer, unassigned) [2-54 Isomer 2]
[1]; [5]
  EC50: 0.0316 µM
[1]; [6]
  Emax: 98%
[2]; phospho-ERK1/2
  EC50: > 20 µM
[2]; [7]
  Emax: 20%
[3]; [8]
  EC50: 0.251 µM
[3]; relative to ACh
  Emax: 106%
[4]
  EC50: > 20 µM
  Emax: 28%

## CC(=O)OCC[N+](C)(C)C [ACh, acetylcholine, reference compound]
[1]; read-out: % Emax cf. ACh (M4)
  Emax: 110%
[2]; read-out: % Emax cf. ACh (M3)
  Emax: 115%

## CCOC(=O)N1CCC2(CC(N3CCC(N(C(=O)OC)C(C)C)CC3)C2)C1 (single isomer, unassigned) [2-41 Isomer 2]
[1]; [5]
  EC50: 0.0158 µM
[1]; [6]
  Emax: 127%
[2]; phospho-ERK1/2
  EC50: > 20 µM
[2]; [7]
  Emax: 1%
[3]; [8]
  EC50: 0.316 µM
[3]; relative to ACh
  Emax: 109%
[4]
  EC50: > 20 µM
  Emax: 57%

## CCOC(=O)N1CCC2(CC(N3CCC(N(CCF)Cc4cnco4)CC3)C2)C1 (single isomer, unassigned) [2-61 Isomer 2]
[1]; [6]
  Emax: 101%
[1]; pEC50 M4
  EC50: 0.0398 µM
[2]; phospho-ERK1/2
  EC50: > 20 µM
[2]; [7]
  Emax: 65%
[3]; [8]
  EC50: > 20 µM
[3]; relative to ACh
  Emax: 21%
[4]
  EC50: > 20 µM
  Emax: 52%

## CCOC(=O)N1CCC2(CC(N3CCC(N(CC(=O)OC)C4CC4)CC3)C2)C1 (single isomer, unassigned) [2-9 Isomer 2]
[1]; [5]
  EC50: 0.1 µM
[1]; [6]
  Emax: 92%
[2]; phospho-ERK1/2
  EC50: > 20 µM
[2]; [7]
  Emax: 5%
[3]; [8]
  EC50: > 20 µM
[3]; relative to ACh
  Emax: 14%
[4]
  EC50: > 20 µM
  Emax: 6%

## CCOC(=O)N1CC2(CCC(N3CCC(N(CC)C(C)=O)CC3)C2)C1 (single isomer, unassigned) [3-3 Isomer 2]
[1]; [5]
  EC50: 0.00398 µM
[1]; [6]
  Emax: 93%
[2]; phospho-ERK1/2
  EC50: > 20 µM
[2]; [7]
  Emax: 21%
[3]; [8]
  EC50: > 20 µM
[3]; relative to ACh
  Emax: 18%
[4]
  EC50: > 20 µM
  Emax: 3%

## CCOC(=O)N1CCC2(CC(N3CCC(N(CCOC)C4CC4)CC3)C2)C1 (single isomer, unassigned) [2-8 Isomer 2]
[1]; [5]
  EC50: 0.02 µM
[1]; [6]
  Emax: 57%
[2]; phospho-ERK1/2
  EC50: > 20 µM
[2]; [7]
  Emax: 6%
[3]; [8]
  EC50: > 20 µM
[3]; relative to ACh
  Emax: 4%
[4]
  EC50: > 20 µM
  Emax: 6%

## CCOC(=O)N1CCC2(CC(N3CCC(N(CC4CC4)C(C)=O)CC3)C2)C1 (single isomer, unassigned) [2-20 Isomer 2]
[1]; [5]
  EC50: 0.0398 µM
[1]; CHO cells stably expressing human M4, phospho-ERK1/2, relative to ACh
  % Emax cf. ACh (M4): 108%
[2]; phospho-ERK1/2
  EC50: > 20 µM
[2]; [7]
  Emax: 33%
[3]; [8]
  EC50: 0.2 µM
[3]; CHO cells stably expressing human M1, relative to ACh
  % Emax cf. ACh (M1): 113%
[4]
  EC50: > 20 µM
  Emax: 60%

## CCOC(=O)N1CCC2(CC(N3CCC(OC(C)c4ccccc4)CC3)C2)C1 (single isomer, unassigned) [2-66 Isomer 2]
[1]; [5]
  EC50: 0.0398 µM
[1]; [6]
  Emax: 76%
[2]; phospho-ERK1/2
  EC50: > 20 µM
[2]; [7]
  Emax: 8%
[3]; [8]
  EC50: > 20 µM
[3]; relative to ACh
  Emax: 59%
[4]
  EC50: > 20 µM
  Emax: 17%

## CCOC(=O)N1CCC2(CC(N3CCC(N(Cc4ccccc4)C(C)=O)CC3)C2)C1 (single isomer, unassigned) [2-35 Isomer 2]
[1]; [5]
  EC50: 0.126 µM
[1]; [6]
  Emax: 72%
[2]; phospho-ERK1/2
  EC50: > 20 µM
[2]; [7]
  Emax: 34%
[3]; [8]
  EC50: 0.0398 µM
[3]; relative to ACh
  Emax: 85%
[4]
  EC50: > 20 µM
  Emax: 21%

## CCOC(=O)N1CC2(CCC(N3CCC(N(C(C)=O)C4CC4)CC3)C2)C1 (racemic) [3-1 Racemic]
[1]; [5]
  EC50: 0.01 µM
[1]; [6]
  Emax: 46%
[2]; phospho-ERK1/2
  EC50: > 20 µM
[2]; [7]
  Emax: 5%
[3]; [8]
  EC50: > 20 µM
[3]; relative to ACh
  Emax: 19%
[4]
  EC50: > 20 µM
  Emax: 2%

## CCOC(=O)N1CCC2(CC(N3CCC(N(CC)C(=O)N(C)C)CC3)C2)C1 (single isomer, unassigned) [Example 2-44 Isomer 2]
[1]; [5]
  EC50: 0.398 µM
[1]; [6]
  Emax: 80%
[3]; [8]
  EC50: 2.51 µM
[3]; relative to ACh
  Emax: 55%

## CCOC(=O)N1CCC2(CC(N3CCC(N(CC(F)(F)F)C(C)=O)CC3)C2)C1 (single isomer, unassigned) [2-25 Isomer 2]
[1]; [5]
  EC50: 0.1 µM
[1]; [6]
  Emax: 101%
[3]; [8]
  EC50: 3.98 µM
[3]; relative to ACh
  Emax: 125%
